System: diluted blood (red blood cell)
Type: cell-based, Human
Experimental: The term “hemolytic potential’ refers to ability of fluid to degrade the red blood cell and releases hemoglobin. The hemolytic potential is measured as release of hemoglobin from blood cells. • Blank, Negative and Positive Control • Blank: Diluted Blood • Negative control (Vehicle): 0.9% Sodium chloride (Normal Saline) is isotonic with Human blood. • Positive control: 5% Saponin was used as positive control Required quantity of blood was collected into K2 EDTA vials and immediately mixed well, this was used for the study within 24 hours of blood collection. The blood was maintained at ambient room temperature before use. Hemoglobin was determined using Advia 2120i heamtology system for this purpose, concentrations will be determined twice, before and after dilution. A separate aliquot of blood was centrifuged, and plasma was analyzed for hemoglobin to ensure blood was not hemolyzed before the study. Hemoglobin standard solutions was prepared using human hemoglobin. Initially, a stock solution of 180 mg hemoglobin/mL was prepared in Drabkin's reagent by dissolving the hemoglobin powder in Drabkin's reagent. The working standards of at least 6 different concentrations was prepared in Drabkin's reagent and was read in plate reader at 540 nm wavelength. […]

Saponin [Positive control]
% Hemolysis: 100.00%

— patent publication US20260014226A1, “STABLE READY TO DILUTE COMPOSITION OF CARFILZOMIB” (Kashiv BioSciences, LLC, priority 2021, published 2026)
